Target: TSLP (Homo sapiens, UniProt Q969D9)
Assay: Human TSLP Surface Plasmon Resonance (SPR) binding assay
Design: The resulting construct spCD33-6×HN-TEV-hTSLP(29-159)-Avi; 6xHN tag with TEV site (N, cleaved yes); made in house; host or cells: Expi293F cells
Conditions: biotinylated human TSLP immobilized on streptavidin chip; 20° C.; steady-state or kinetic 1:1 fit; read-out: hTSLP SPR Kd

TSLP, sequence (Q969D9 29-159): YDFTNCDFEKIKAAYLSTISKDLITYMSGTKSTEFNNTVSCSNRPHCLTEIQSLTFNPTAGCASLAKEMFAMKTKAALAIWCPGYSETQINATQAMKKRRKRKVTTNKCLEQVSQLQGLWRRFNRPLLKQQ

Row | SMILES | Kd [µM]
1 | CC(=O)N[C@H]1CSCCC(=O)N2CN3CN(C2)C(=O)CCSC[C@H](NC(=O)[C@H](CC(=O)O)NC(=O)[C@H](CCC(=O)O)NC(=O)[C@H](CC(C)C)NC(=O)[C@H](Cc2c[nH]c4ccc(F)cc24)NC(=O)[C@H](CCC(N)=O)NC1=O)C(=O)N[C@@H](Cc1c[nH]c2ccc(F)cc12)C(=O)N[C@@H](CCCNC(=N)N)C(=O)NCC(=O)N[C@@H](Cc1ccc(F)cc1)C(=O)N[C@H](C(N)=O)CSCCC3=O [Example 21, Ac-(SEQ ID NO: 19)] | 0.0092
2 | CC(=O)N[C@H]1CSCCC(=O)N2CN3CN(C2)C(=O)CCSC[C@H](NC(=O)[C@H](CC(=O)O)NC(=O)[C@H](CCC(=O)O)NC(=O)[C@H](CC(C)C)NC(=O)[C@H](Cc2c[nH]c4ccccc24)NC(=O)[C@H](CCC(N)=O)NC1=O)C(=O)N[C@@H](Cc1c[nH]c2ccccc12)C(=O)N[C@@H](CCCNC(=N)N)C(=O)NCC(=O)N[C@@H](Cc1ccc(Br)cc1)C(=O)N[C@H](C(N)=O)CSCCC3=O [Example 26, Ac-(SEQ ID NO: 24)] | 0.011
3 | CC(=O)N[C@H]1CSCCC(=O)N2CN3CN(C2)C(=O)CCSC[C@H](NC(=O)[C@H](CC(=O)O)NC(=O)[C@H](CCC(=O)O)NC(=O)[C@H](CC(C)C)NC(=O)[C@H](Cc2c[nH]c4ccccc24)NC(=O)[C@H](CCC(N)=O)NC1=O)C(=O)N[C@@H](Cc1c[nH]c2ccccc12)C(=O)N[C@@H](CCCNC(=N)N)C(=O)NCC(=O)N[C@@H](Cc1cc(F)c(F)c(F)c1)C(=O)N[C@H](C(N)=O)CSCCC3=O [Example 37, Ac-(SEQ ID NO: 33)] | 0.019
4 | CC(=O)N[C@H]1CSCCC(=O)N2CN3CN(C2)C(=O)CCSC[C@H](NC(=O)[C@H](CC(=O)O)NC(=O)[C@H](CCC(=O)O)NC(=O)[C@H](CC(C)C)NC(=O)[C@H](Cc2c[nH]c4ccccc24)NC(=O)[C@H](CCC(N)=O)NC1=O)C(=O)N[C@@H](Cc1c[nH]c2ccccc12)C(=O)N[C@@H](CCCNC(=N)N)C(=O)NCC(=O)N[C@@H](Cc1ccc(Cl)c(F)c1)C(=O)N[C@H](C(N)=O)CSCCC3=O [Example 41, Ac-(SEQ ID NO: 37)] | 0.024
5 | CC(C)C[C@@H]1NC(=O)[C@H](Cc2c[nH]c3ccccc23)NC(=O)[C@H](CCC(N)=O)NC(=O)[C@@H](N)CSCCC(=O)N2CN3CN(C2)C(=O)CCSC[C@H](NC(=O)[C@H](CC(=O)O)NC(=O)[C@H](CCC(=O)O)NC1=O)C(=O)N[C@@H](Cc1c[nH]c2ccccc12)C(=O)N[C@@H](CCCNC(=N)N)C(=O)NCC(=O)N[C@@H](Cc1ccc(F)cc1)C(=O)N[C@H](C(=O)O)CSCCC3=O [Example 48, (SEQ ID NO: 15)-COOH] | 0.033
6 | CC(=O)N[C@H]1CSCCC(=O)N2CN3CN(C2)C(=O)CCSC[C@H](NC(=O)[C@H](CC(=O)O)NC(=O)[C@H](CCC(=O)O)NC(=O)[C@H](CC(C)C)NC(=O)[C@H](Cc2c[nH]c4ccccc24)NC(=O)[C@H](CCC(N)=O)NC1=O)C(=O)N[C@@H](Cc1c[nH]c2ccccc12)C(=O)N[C@@H](CCCNC(=N)N)C(=O)NCC(=O)N[C@@H](Cc1ccccc1)C(=O)N[C@H](C(=O)N[C@@H](C)C(=O)N1CCC[C@H]1C(=O)N[C@@H](CC(=O)O)C(=O)N[C@@H](CCC(=O)O)C(=O)N[C@@H](CCCNC(=N)N)C(=O)N[C@@H](CC(=O)O)C(N)=O)CSCCC3=O [Example 54, Ac-(SEQ ID NO: 38)-APDERD] | 0.046
7 | CC(C)C[C@@H]1NC(=O)[C@H](Cc2c[nH]c3ccccc23)NC(=O)[C@H](CCC(N)=O)NC(=O)[C@@H](NC(=O)[C@H](C)N)CSCCC(=O)N2CN3CN(C2)C(=O)CCSC[C@H](NC(=O)[C@H](CC(=O)O)NC(=O)[C@H](CCC(=O)O)NC1=O)C(=O)N[C@@H](Cc1c[nH]c2ccccc12)C(=O)N[C@@H](CCCNC(=N)N)C(=O)NCC(=O)N[C@@H](Cc1ccccc1)C(=O)N[C@H](C(=O)N[C@@H](CC(=O)O)C(=O)N[C@@H](CC(=O)O)C(=O)N[C@@H](C)C(=O)N[C@@H](Cc1c[nH]cn1)C(=O)N[C@@H](C)C(=O)N1CCC[C@H]1C(N)=O)CSCCC3=O [Example 55, A-(SEQ ID NO: 38)-DDAHAP] | 0.047

Reference: US11866518B2, “Bicyclic peptide ligands specific for TSLP” (BicycleTx Limited, priority 2020, dated 2024)
